{
  "source": "paper PMC5054363",
  "about": "(Scientific Reports, 2016)",
  "key": {"[1]": {"test_system": "HGC27-APL-R gastric carcinoma cells (plitidepsin-resistant)", "assay": "Cell growth inhibition (MTT, 72 h), HGC27-APL-R", "assay_type": "cell-based", "conditions": "highest concentration tested 100 nM"}, "[2]": {"test_system": "eEF1A2 in HeLa protein extract", "assay": "DARTS assay (subtilisin digestion of HeLa protein extract)", "assay_type": "binding, human", "conditions": "plitidepsin 1 h, subtilisin 30 min, room temperature, Western blot", "method": "(A) Saturation binding curve. […] (B) Dissociation kinetics of [14C]-plitidepsin from eEF1A2.\nEach sample was then digested with subtilisin for 30 min at room temperature.\nProtein extracts from HeLa cells were obtained by treating them with lysis buffer (see above) and kept on ice for 15 min. Cell extracts were cleared by centrifugation at 14,000 × g for 15 min at 4 °C. […] Extracts were digested with the indicated concentrations of Subtilisin (EC 3.4.21.62) for 30 min at RT. […] Quantitation of the eEF1A2 bands was performed with the Image Lab v5.2.1 software (Bio-Rad, Hercules, CA, USA)."}, "[3]": {"test_system": "subcellular and chromatographic fractions of K-562 cell lysate", "assay": "Binding of [14C]-plitidepsin to K-562 lysate fractions", "method": "Figure 4 Identification of the plitidepsin-binding protein in a K-562 cells lysate. […] In the horizontal axis “P” and “S” mean “pellet” and “supernatant”, respectively, with the figure aside denoting the relative centrifugal force (in thousands of g) used to obtain such fraction. Data (in dpm per mg of protein) represent the mean of three independent samples with error bars showing S.D. * means p < 0.05. (C) Anion-exchange chromatography on DEAE, flow rate 5 mL/min. (D) Cation-exchange chromatography on SP, flow rate 2.5 mL/min. (E) Size exclusion chromatography on Superdex 200, flow rate 4 mL/min. Representative fractions (4-mL) from each portion of the eluates were analyzed for their binding to [^14C]-plitidepsin in the presence (grey bars, non-specific binding) or absence (black bars, total binding) of a 20-fold excess of unlabeled drug. Only fractions showing significant specific binding to the radioligand were pooled and progressed to the next chromatographic step. In all cases absorbance is expressed in mAU and conductivity in mS/cm.\nThe rest of the peptides detected in this material corresponded to fragments whose sequences are common to both isoforms, thus discarding the presence of any other protein.\nAfter 1 h incubation at room temperature 400 μL of each tube were withdrawn and processed as described above."}, "[4]": {"test_system": "eEF1A2", "assay": "GDP/GTP exchange in eEF1A2", "assay_type": "biochemical", "conditions": "with EF1B, data not shown"}, "[5]": {"test_system": "sphingosine kinase-1 (SK1)", "assay": "Sphingosine kinase-1 activity in tumor cells", "assay_type": "cell-based", "conditions": "preliminary, data not shown"}, "[6]": {"test_system": "sphingosine kinase-1 (SK1)", "assay": "Direct effect on SK1", "assay_type": "biochemical", "conditions": "preliminary, data not shown"}, "[7]": {"test_system": "CHRM4 (M4 muscarinic acetylcholine receptor)", "assay": "PathHunter acetylcholine-mediated CHRM4 activation", "assay_type": "cell-based", "conditions": "CHO-transfected cell line, preliminary, data not shown", "source_text": "(§1) For example, it is known that eEF1A is able to directly increase the activity of sphingosine kinase-1 (SK1), an effect that is related to oncogenesis. […] The hijacking of eEF1A with the consequent reduction of SK1 activity has already been described as a biological mechanism in dengue virus type-2 infected cells. Another example is the specific binding of eEF1A2 to the i3 loop of M4, but not M1, muscarinic acetylcholine receptor[40]. This direct interaction with M4 regulates its cell membrane density and activity. […] This is due to a specific interaction of eEF1A with aberrant polypeptides named defective ribosomal products (DRiPs) that are ligated to multi-ubiquitin chains following translation damage; eEF1A also plays a role in sensing DRiP accumulation when the proteasome is inhibited."}, "[8]": {"test_system": "CHRM1 (M1 muscarinic acetylcholine receptor)", "assay": "PathHunter CHRM1 activation", "assay_type": "cell-based", "conditions": "data not shown", "source_text": "as §1"}, "[9]": {"test_system": "HeLa cervical cancer cells", "parameters": "method as in PMID 15365569", "conditions": "HeLa parental cells, 72 h, Fig. 1A; reported as previously described; cited from earlier work"}, "[10]": {"test_system": "HeLa-APL-R cervical cancer cells (plitidepsin-resistant)", "parameters": "method as in PMID 15365569", "conditions": "72 h, Fig. 1A, reported as previously described; cited from earlier work"}, "[11]": {"test_system": "human leukemic cells", "conditions": "cited from earlier work", "source_text": "The high affinity of this interaction is in consonance with the nanomolar antiproliferative potency of this compound, also observed in many previous reports (for a review see ref. [10])."}, "[12]": {"test_system": "multiple myeloma cells", "conditions": "cited from earlier work", "source_text": "For example, it is known that eEF1A is able to directly increase the activity of sphingosine kinase-1 (SK1), an effect that is related to oncogenesis. […] The hijacking of eEF1A with the consequent reduction of SK1 activity has already been describe ..."}},
  "note": "pIC50: −log10 of the molar value. *1 amine or outer side, *2 acyl side, *3 side chain or, on linkers, in order; H or OH if unused. Where a SMILES comes first, the peptide text is derived from it. Bridges are numbered along the chain shown (N, C = ends). [ ]: non-standard residue; d: D form. The star is where a group is joined. X1 = CC[C@H](C)[C@@H](N[*:1])[C@@H](O)CC(=O)O[C@H](C(=O)[C@H](C)C(=O)[*:2])C(C)C; NMeY = CN[C@@H](Cc1ccc(O)cc1)C(=O)O; dNMeL = CN[C@H](CC(C)C)C(=O)O; Pyruvoyl = CC(=O)C(=O)*",
  "data": [
    {"smiles": "CC[C@H](C)[C@H]1NC(=O)[C@@H](NC(=O)[C@@H](CC(C)C)N(C)C(=O)[C@@H]2CCCN2C(=O)C(C)=O)[C@@H](C)OC(=O)[C@H](Cc2ccc(OC)cc2)N(C)C(=O)[C@@H]2CCCN2C(=O)[C@H](CC(C)C)NC(=O)[C@@H](C)C(=O)[C@H](C(C)C)OC(=O)C[C@@H]1O", "note": "[plitidepsin, Plitidepsin] (Pyruvoyl-P[dNMeL]T[X1]LP[NMeY](Me); ester 3-C (inferred))", "values": [
      {"measurement": "effect on cell growth", "setting": "[1]", "value": "did not cause any effect on cell growth"},
      {"measurement": "protection of eEF1A2 from digestion by subtilisin", "setting": "[2]", "value": "protected eEF1A2 from digestion by subtilisin in a concentration-dependent manner"},
      {"measurement": "proteins detected as capable of binding plitidepsin", "setting": "[3]; K-562 lysate, MALDI-TOF/TOF identification", "value": "both isoforms of eEF1A are the only proteins"},
      {"measurement": "specific binding by size-exclusion peaks", "setting": "[3]; Superdex 200 peaks, fourth peak eluting at 80 min, ca. 50 kDa", "value": "only the fourth one"},
      {"measurement": "effect on GDP/GTP exchange in eEF1A2", "setting": "[4]", "value": "very modest"},
      {"measurement": "SK1 activity in tumor cells", "setting": "[5]", "value": "decrease the activity of this enzyme in tumor cells"},
      {"measurement": "direct effect on SK1", "setting": "[6]", "value": "not due to a direct effect of the drug on SK1"},
      {"measurement": "decrease of acetylcholine-mediated CHRM4 activation", "setting": "[7]", "value": 55, "unit": "%"},
      {"measurement": "effect on CHRM1", "setting": "[8]", "value": "did not affect CHRM1"},
      {"measurement": "pIC50", "setting": "[9]", "value": 9.00},
      {"measurement": "pIC50", "setting": "[10]", "value": "< 7.00"},
      {"measurement": "effect of cytochalasin B and jasplakinolide pretreatment on apoptotic response", "setting": "[11]; 10 nM plitidepsin, actin-binding agents", "value": "prevented"},
      {"measurement": "effect of cycloheximide pretreatment on apoptotic response", "setting": "[11]; 10 nM plitidepsin, cycloheximide at concentrations that inhibit protein synthesis", "value": "not to be affected"},
      {"measurement": "apoptotic response", "setting": "[11]; human leukemic cells, 10 nM", "value": "fast and complete apoptotic response"},
      {"measurement": "combination effect with bortezomib", "setting": "[12]; with bortezomib", "value": "synergistic"},
      {"measurement": "combination effect with lenalidomide", "setting": "[12]; with lenalidomide", "value": "synergistic"},
      {"measurement": "combination effect with thalidomide", "setting": "[12]; with thalidomide", "value": "synergistic"}
    ]}
  ]
}
